Experimental data reported in paper PMC10709440, “High-throughput ligand profile characterization in novel cell lines expressing seven heterologous insect olfactory receptors for the detection of volatile plant biomarkers” (Scientific Reports, 2023).
Like-named read-outs stand apart in the source and are kept apart here.

Key:
[1] = molecular target: T1, Drosophila OR13a (Drosophila melanogaster, UniProt Q9VXL0); assay: Calcium ion fluorescence (GCaMP6) assay, OR13a stable HEK293 cell line; assay type: cell-based; set-up: key to DF norm AVERAGE OR13a: VOC ∆F divided by the plate's mean ∆F response to 50 µM VUAA1; settings: for OR13a response (VUAA1-normalized) at 1 μM / OR13a response (VUAA1-normalized) at 10 μM / OR13a response (VUAA1-normalized) at 100 μM: OR13a cell line; for OR13a response (VUAA1-normalized) at 1 μM: VOC concentration 1 μM; for OR13a response (VUAA1-normalized) at 10 μM: VOC concentration 10 μM; for OR13a response (VUAA1-normalized) at 100 μM: VOC concentration 100 μM
T1 construct: expressed in transfected cells
T1 sequence (Q9VXL0 1-418): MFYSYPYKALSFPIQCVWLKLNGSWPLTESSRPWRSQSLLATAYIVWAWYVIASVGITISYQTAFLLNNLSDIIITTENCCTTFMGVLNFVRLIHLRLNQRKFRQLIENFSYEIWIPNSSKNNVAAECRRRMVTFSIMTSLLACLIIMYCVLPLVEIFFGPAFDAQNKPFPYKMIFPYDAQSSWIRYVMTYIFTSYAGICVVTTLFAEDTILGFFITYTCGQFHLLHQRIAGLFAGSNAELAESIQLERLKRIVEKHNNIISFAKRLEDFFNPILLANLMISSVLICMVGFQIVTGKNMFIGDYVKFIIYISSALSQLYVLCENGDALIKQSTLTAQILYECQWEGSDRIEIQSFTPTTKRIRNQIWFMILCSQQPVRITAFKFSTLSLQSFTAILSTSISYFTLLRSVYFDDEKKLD
T1 sequence (Q9VNB5 1-486 partner): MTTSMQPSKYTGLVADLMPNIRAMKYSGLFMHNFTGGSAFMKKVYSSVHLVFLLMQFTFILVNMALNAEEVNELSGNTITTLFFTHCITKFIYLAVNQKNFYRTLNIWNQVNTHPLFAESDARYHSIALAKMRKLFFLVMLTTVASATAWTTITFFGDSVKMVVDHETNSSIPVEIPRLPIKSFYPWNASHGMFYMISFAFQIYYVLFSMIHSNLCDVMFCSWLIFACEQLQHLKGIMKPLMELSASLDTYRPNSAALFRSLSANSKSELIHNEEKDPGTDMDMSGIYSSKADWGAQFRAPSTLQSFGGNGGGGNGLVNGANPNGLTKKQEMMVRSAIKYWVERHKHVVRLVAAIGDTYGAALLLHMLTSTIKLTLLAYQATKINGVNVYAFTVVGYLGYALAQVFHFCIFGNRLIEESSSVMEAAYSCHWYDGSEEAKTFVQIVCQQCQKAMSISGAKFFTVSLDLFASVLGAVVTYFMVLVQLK
Method: (§1) These VUAA1 normalized ∆F values were used to compare the different receptors and ligands.
(§2) The concentration-dependent effect of the reference ligands on their cognate cell lines was examined in more detail. Twelve different ligand concentrations were measured on each cell line in an overall 0.01 μM to 100 μM concentration range with 5 repetitions with three technical replicates each time.
(§3) Twelve thousand to 18,000 cells were plated into each well of a black wall, transparent bottom 384-well microplate (Greiner) 48 h or 72 h before the measurements and were simultaneously treated with 1 μg/mL doxycycline. […] The plate has 24 columns, thus we could record responses in up to eight different cell lines in each plate. On the day of the experiment, the growth medium was replaced with 20 µL assay buffer/well (140 mM NaCl, 5 mM KCl, 2 mM CaCl2, 1 mM MgCl2, 5 mM HEPES-Na, 20 mM glucose, pH 7.3, 340 mOsm). […] Baseline fluorescence (F0) was recorded for 5 s, after which 7 µL VOC buffer (140 mM NaCl, 5 mM KCl, 2 mM CaCl2, 1 mM MgCl2, 5 mM HEPES-Na, 31 mM glucose, 0.1% DMSO, pH 7.3, 340 mOsm) was injected into each well in one row and the fluorescence response was recorded for an additional 30 s, at a rate of one read/sec. VOC solutions (VOC buffer with 4× concentration of the final measured VOC concentration, 9 µL/well was injected) were measured on the same wells in a second round with the same protocol. Each individual concentration of a specific VOC sample was recorded in three wells for the same cell line on the same microplate. The raw data were exported in xls file format, F0 and FMAX values, and the fluorescence intensity changes (∆F) were calculated in Excel (Microsoft) (Supplementary file Data summary.xlsx) using the following equation: ΔF=FMAX-F0/F0 (see also Fig. 1C). On each plate, we recorded the response of each cell line to 50 µM VUAA1. The average of these ∆F values of each cell line were used to calculate the VUAA1-normalized values for the rest of the plate, by dividing VOC response ∆F values by the average VUAA1 response ∆F value of the corresponding OR cell line. Each VOC-OR combination was measured three times as technical replicates. […] The average of these replicates were used as one ∆F and VUAA1-normalized ∆F in the following analysis.
(§4) In the next rows we tested the reference VOCs (or other VOCs known to activate the corresponding cell lines), in order to test if all cell lines are responsive. The remaining rows were used to test VOCs with unknown effect.
(§5) The recorded FMAX, F0, ∆F, VUAA1-normalized ∆F values, as well as the OR name, the name of the tested sample, and the final concentration for each well were copied into supplementary file Data summary.xlsx, that was used to summarize all the plates recorded. Here, the averages of the measurements were calculated for each receptor-VOC-concentration combination.

[2] = molecular target: T2, Drosophila OR71a (Drosophila melanogaster, UniProt Q9VUK5); assay: Calcium ion fluorescence (GCaMP6) assay, OR71a stable HEK293 cell line; assay type: cell-based; set-up: key to DF norm AVERAGE OR71a: VOC ∆F divided by the plate's mean ∆F response to 50 µM VUAA1; settings: for OR71a response (VUAA1-normalized) at 1 μM / OR71a response (VUAA1-normalized) at 10 μM / OR71a response (VUAA1-normalized) at 100 μM / Average response: OR71a cell line; for OR71a response (VUAA1-normalized) at 1 μM: VOC concentration 1 μM; for OR71a response (VUAA1-normalized) at 10 μM: VOC concentration 10 μM; for OR71a response (VUAA1-normalized) at 100 μM: VOC concentration 100 μM; for Average response: VUAA1-normalized response, mean of biological replicates; for activation at 1 µM / activation at 10 µM / activation at 100 µM: HEK293, read-out: OR71a response (VUAA1-normalized response)
T2 construct: expressed in transfected cells
T2 sequence (Q9VUK5 1-378): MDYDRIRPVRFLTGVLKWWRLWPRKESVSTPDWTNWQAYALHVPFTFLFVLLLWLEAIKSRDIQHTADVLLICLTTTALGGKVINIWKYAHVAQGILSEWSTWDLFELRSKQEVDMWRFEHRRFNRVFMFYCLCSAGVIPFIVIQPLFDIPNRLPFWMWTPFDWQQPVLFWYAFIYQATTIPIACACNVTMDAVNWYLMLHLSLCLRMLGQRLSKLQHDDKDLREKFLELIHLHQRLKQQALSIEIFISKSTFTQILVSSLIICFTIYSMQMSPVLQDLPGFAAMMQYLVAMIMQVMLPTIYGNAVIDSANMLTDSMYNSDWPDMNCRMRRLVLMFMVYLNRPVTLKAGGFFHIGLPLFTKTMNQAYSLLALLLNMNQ
T2 sequence (Q9VNB5 1-486 partner): T1 sequence (Q9VNB5 1-486 partner)
Method: as §1, §2, §3, §4, §5

[3] = HEK293, read-out: OR13a Average response (VUAA1-normalized), 1 μM VOC, 50 μM VUAA1 = 1, responses not exceeding 0.05 considered 0
[4] = HEK293, read-out: OR13a Average response (VUAA1-normalized), 10 μM VOC, 50 μM VUAA1 = 1, responses not exceeding 0.05 considered 0
[5] = HEK293, read-out: OR13a Average response (VUAA1-normalized), 100 μM VOC, 50 μM VUAA1 = 1, responses not exceeding 0.05 considered 0
[6] = ligand concentration 1 (unit not given), threshold 0.05, below shown as 0
[7] = ligand concentration 10 (unit not given), threshold 0.05, below shown as 0
[8] = ligand concentration 100 (unit not given), threshold 0.05, below shown as 0
[9] = HEK293, read-out: OR13a response (VUAA1-normalized response), VOC concentration 1 μM
[10] = HEK293, read-out: OR13a response (VUAA1-normalized response), VOC concentration 10 μM
[11] = HEK293, read-out: OR13a response (VUAA1-normalized response), VOC concentration 100 μM
[12] = concentration 1, normalized fluorescence change, values below 0.05 threshold given as 0
[13] = concentration 10, normalized fluorescence change, values below 0.05 threshold given as 0
[14] = concentration 100, normalized fluorescence change, values below 0.05 threshold given as 0
[15] = HEK293, read-out: OR13a Average response (VUAA1-normalized)
[16] = HEK293, read-out: OR13a response (VUAA1-normalized response)

| SMILES | activation at 1 µM [1, 3] [%] | activation at 10 µM [1, 4] [%] | activation at 100 µM [1, 5] [%] | OR13a response (VUAA1-normalized) at 1 μM [1] | OR13a response (VUAA1-normalized) at 10 μM [1] | OR13a response (VUAA1-normalized) at 100 μM [1] | DF norm AVERAGE OR13a [1, 6] | DF norm AVERAGE OR13a [1, 7] | DF norm AVERAGE OR13a [1, 8] | OR71a response (VUAA1-normalized) at 1 μM [2] | OR71a response (VUAA1-normalized) at 10 μM [2] | Average response ([2]; cc. 1 µM) | Average response ([2]; cc. 10 µM) | Average response ([2]; cc. 100 µM) | DF norm AVERAGE OR71a [2, 6] | DF norm AVERAGE OR71a [2, 7] | DF norm AVERAGE OR71a [2, 8] | activation at 1 µM [2] [%] | activation at 10 µM [2] [%] | activation at 100 µM [2] [%] | also measured |
| --- | --- | --- | --- | --- | --- | --- | --- | --- | --- | --- | --- | --- | --- | --- | --- | --- | --- | --- | --- | --- | --- |
| C=CC(C)(O)CCC=C(C)C (stereo not drawn) [linalool] | 1.21 | 4.47 | 0 | 0.00 | 0.00 | 0.00 | 0 | 0 | 0 | 0.00 | 0.00 | 0.00 | 0.0443 | 0.0124 | 0 | 0 | 0 | – | – | – | OR71a response (VUAA1-normalized) at 100 μM [2]: 0.00 |
| Cc1ccc(O)cc1 [4-methylphenol] | 4.62 | 2 | 1.38 | – | – | – | – | – | – | – | – | 0.00 | 0.00 | 0.00 | – | – | – | 0 | 0 | 0 | activation at 1 µM [1, 9]: 0%; activation at 10 µM [1, 10]: 0%; activation at 100 µM [1, 11]: 0%; DF norm AVERAGE OR13a [1, 12]: 0; DF norm AVERAGE OR13a [1, 13]: 0; DF norm AVERAGE OR13a [1, 14]: 0; DF norm AVERAGE OR71a [2, 12]: 0; DF norm AVERAGE OR71a [2, 13]: 0; DF norm AVERAGE OR71a [2, 14]: 0 |
| Cc1cccc(C)c1 [m-xylene] | 0 | 0 | 4 | 0.00 | 0.00 | 0.00 | 0 | 0 | 0 | 0.00 | 0.00 | 0.00 | 0.00 | 0.00 | 0 | 0 | 0 | – | – | – | OR71a response (VUAA1-normalized) at 100 μM [2]: 0.00 |
| CCCCCO [1-pentanol] | 0 | 1.6 | 0 | – | – | – | – | – | – | – | – | 0.0261 | 0.00 | 0.00 | – | – | – | 0 | 0 | 0 | activation at 1 µM [1, 9]: 0%; activation at 10 µM [1, 10]: 0%; activation at 100 µM [1, 11]: 0%; DF norm AVERAGE OR13a [1, 12]: 0; DF norm AVERAGE OR13a [1, 13]: 0; DF norm AVERAGE OR13a [1, 14]: 0; DF norm AVERAGE OR71a [2, 12]: 0; DF norm AVERAGE OR71a [2, 13]: 0; DF norm AVERAGE OR71a [2, 14]: 0 |
| Cc1ccccc1C [o-xylene] | 0 | 0 | 1.83 | 0.00 | 0.00 | 0.00 | 0 | 0 | 0 | 0.00 | 0.00 | 0.00 | 0.00 | 0.00 | 0 | 0 | 0 | – | – | – | OR71a response (VUAA1-normalized) at 100 μM [2]: 0.00 |
| CCc1ccccc1 [ethylbenzene] | – | – | – | – | – | – | 0 | 0 | 0 | – | – | 0.023 | 0.0127 | 0.0277 | 0 | 0 | 0 | 0 | 0 | 0 | activation at 1 µM [1, 15]: 1.44%; activation at 10 µM [1, 15]: 1.55%; activation at 100 µM [1, 15]: 0%; activation at 1 µM [1, 16]: 0%; activation at 10 µM [1, 16]: 0%; activation at 100 µM [1, 16]: 0% |
| CCCCCCCO [1-heptanol] | 2 | 15 | 22 | – | – | – | – | – | – | – | – | 0.00 | 0.00 | 0.00 | – | – | – | 0 | 0 | 0 | activation at 1 µM [1, 9]: 0%; activation at 10 µM [1, 10]: 15%; activation at 100 µM [1, 11]: 22%; DF norm AVERAGE OR13a [1, 12]: 0; DF norm AVERAGE OR13a [1, 13]: 0.145; DF norm AVERAGE OR13a [1, 14]: 0.219; DF norm AVERAGE OR71a [2, 12]: 0; DF norm AVERAGE OR71a [2, 13]: 0; DF norm AVERAGE OR71a [2, 14]: 0 |
